Assay results published in PubChem BioAssay AID1259408 (Genetic Toxicology Data Bank (GENE-TOX), 2018).
Active and inactive are the calls of the source. How the calls were made is not given here.

Tested on: GENE-TOX genotoxicity assays, various organisms and cells
Test: GENE-TOX mutagenicity studies
Details: for call: Assay Type: In vivo carcinogenicity studies
[1] = Species/Cell Type: Bacillus subtilis (H17 vs M45), Assay Type: Rec-assay, spot test, DNA effects (bacterial DNA repair), Assay Code: REW+, Evaluation Type: Evaluation A (Pre-1980)
[2] = Species/Cell Type: Neurospora crassa, Assay Type: Forward gene mutation, Assay Code: NEF+, Evaluation Type: Evaluation A (Pre-1980)
[3] = Species/Cell Type: Salmonella typhimurium (one or more of the five standard strains: TA98, TA100, TA1535, TA1537, and TA1538), Assay Type: Histidine reverse gene mutation, Ames assay, Assay Code: SAL+*, Activation: With metabolic activation, Evaluation Type: Evaluation A (Pre-1980)
[4] = Species/Cell Type: Human lymphocytes, Assay Type: Sister-chromatid exchange (SCE) in vitro, Assay Code: SCL+D, Dose Response: With dose response, Evaluation Type: Evaluation B (Post-1980)
[5] = Species/Cell Type: Human, Assay Type: Sister-chromatid exchange (SCE) in vitro, Assay Code: SC1+D, Dose Response: With dose response, Evaluation Type: Evaluation B (Post-1980)
[6] = Species/Cell Type: Nonhuman, Assay Code: CCG+, Evaluation Type: Evaluation A (Pre-1980)
[7] = Species/Cell Type: Salmonella typhimurium (one or more of the five standard strains: TA98, TA100, TA1535, TA1537, and TA1538), Assay Type: Histidine reverse gene mutation, Ames assay, Assay Code: SAL-, Evaluation Type: Evaluation A (Pre-1980)
[8] = Species/Cell Type: Mammalian polychromatic erythrocytes, Assay Type: Micronucleus test, chromosome aberrations, Assay Code: MNTT, Evaluation Type: Evaluation B (Post-1980)

For `COc1cc2c(c3oc(=O)c4c(c13)CCOC4=O)[C@@H]1C=CO[C@@H]1O2`, the mutagenic call [1] was “active; positive”, the mutagenic call (Species/Cell Type: Human diploid fibroblasts, Assay Type: Unscheduled DNA synthesis (UDS) in vitro, DNA effects, Assay Code: UDH+, Evaluation Type: Evaluation A (Pre-1980)) was “active; positive” and the mutagenic call [2] was “active; positive”. The call (Species/Cell Type: Nonhuman, Assay Code: CCG+L, Evaluation Type: Evaluation A (Pre-1980)) was “active; positive”, the mutagenic call (Species/Cell Type: Nonhuman, Assay Type: Sister-chromatid exchange (SCE) in vitro, Assay Code: SC2+D*, Activation: With metabolic activation, Dose Response: With dose response, Evaluation Type: Evaluation B (Post-1980)) was “active; positive” and the mutagenic call (Species/Cell Type: Rat primary hepatocytes, Assay Type: Unscheduled DNA synthesis (UDS) in vitro, DNA effects, Assay Code: UDP+, Evaluation Type: Evaluation A (Pre-1980)) was “active; positive”. The mutagenic call (Species/Cell Type: Saccharomyces cerevisiae, Assay Type: Mitotic recombination or gene conversion, Assay Code: YEC-, Evaluation Type: Evaluation A (Pre-1980)) was “inactive; negative” and the mutagenic call [3] was “active; positive”.

With `CCOC(N)=O` the mutagenic call (Species/Cell Type: Drosophila melanogaster, Assay Type: Aneuploidy, sex chromosome gain, chromosome aberrations, Assay Code: DAG-M, Evaluation Type: Evaluation A (Pre-1980)) was “inactive; negative”, the mutagenic call (Species/Cell Type: Drosophila melanogaster, Assay Type: Aneuploidy, whole sex chromosome loss, chromosome aberrations, Assay Code: DAC+M, Evaluation Type: Evaluation A (Pre-1980)) was “active; positive” and the mutagenic call (Species/Cell Type: Drosophila melanogaster, Assay Type: Sex-linked recessive lethal gene mutation, Assay Code: SRL+, Evaluation Type: Evaluation A (Pre-1980)) was “active; positive”. The mutagenic call (Species/Cell Type: Drosophila melanogaster, Sex: Male, Assay Type: Heritable translocation test, chromosome aberrations, Assay Code: DHT+, Evaluation Type: Evaluation A (Pre-1980)) was “active; positive”, the mutagenic call (Species/Cell Type: Escherichia coli WP2, Assay Type: Tryptophan reverse gene mutation, Assay Code: WP2-, Evaluation Type: Evaluation A (Pre-1980)) was “inactive; negative” and the mutagenic call (Species/Cell Type: Escherichia coli polA (W3110 vs P3478), Assay Type: Rec-assay, DNA effects (bacterial DNA repair), Assay Code: RE2-, Evaluation Type: Evaluation A (Pre-1980)) was “inactive; negative”. For the same compound, the mutagenic call (Species/Cell Type: Escherichia coli polA (W3119 vs P3478), Assay Type: Rec-assay, DNA effects (bacterial DNA repair), Assay Code: RE1T, Evaluation Type: Evaluation A (Pre-1980)) was “no conclusion”, the mutagenic call (Species/Cell Type: Fischer rat embryo (RLV/1706) cells, Assay Type: Cell transformation, viral enhanced, Assay Code: CTR+, Evaluation Type: Evaluation A (Pre-1980)) was “active; positive” and the mutagenic call (Species/Cell Type: Human diploid fibroblasts, Assay Type: Unscheduled DNA synthesis (UDS) in vitro, DNA effects, Assay Code: UDHT, Evaluation Type: Evaluation A (Pre-1980)) was “no conclusion”. The mutagenic call [4] was “active; positive”, the mutagenic call [5] was “active; positive” and the mutagenic call (Species/Cell Type: Mammalian polychromatic erythrocytes, Assay Type: Micronucleus test, chromosome aberrations, Assay Code: MNT+, Evaluation Type: Evaluation A (Pre-1980)) was “active; positive”. For the same compound, the mutagenic call (Species/Cell Type: Mouse embryo (AKR/ME) cells, Assay Type: Cell transformation, Assay Code: CTK+, Evaluation Type: Evaluation A (Pre-1980)) was “active; positive”, the mutagenic call (Species/Cell Type: Mouse, Sex: Male, Assay Type: Sperm morphology, Assay Code: SPI-, Evaluation Type: Evaluation A (Pre-1980)) was “inactive; negative” and the mutagenic call (Species/Cell Type: Neurospora crassa, Assay Type: Reverse gene mutation, Assay Code: NER+, Evaluation Type: Evaluation A (Pre-1980)) was “active; positive”. The call [6] was “active; positive”, the mutagenic call (Species/Cell Type: Nonhuman, Assay Type: Sister-chromatid exchange (SCE) in vitro, Assay Code: SC2+D, Dose Response: With dose response, Evaluation Type: Evaluation A (Pre-1980)) was “active; positive” and the mutagenic call (Species/Cell Type: Nonhuman, Assay Type: Sister-chromatid exchange (SCE) in vivo, Assay Code: SC3+D, Dose Response: With dose response, Evaluation Type: Evaluation B (Post-1980)) was “active; positive”. For the same compound, the mutagenic call (Species/Cell Type: Saccharomyces cerevisiae, Assay Type: Mitotic recombination or gene conversion, Assay Code: YEC+, Evaluation Type: Evaluation A (Pre-1980)) was “active; positive”, the mutagenic call (Species/Cell Type: Saccharomyces cerevisiae, Assay Type: Mitotic recombination or gene conversion, Assay Code: YEH-*, Activation: With metabolic activation, Evaluation Type: Evaluation A (Pre-1980)) was “inactive; negative” and the mutagenic call [7] was “inactive; negative”. For the same compound, the mutagenic call (Species/Cell Type: Salmonella typhimurium, Assay Type: Forward and reverse gene mutation, host-mediated assay, Assay Code: HMA-, Evaluation Type: Evaluation A (Pre-1980)) was “inactive; negative” and the mutagenic call (Species/Cell Type: Syrian hamster embryo (SHE) cells, Assay Type: Cell transformation, clonal assay, Assay Code: CTC+*, Activation: With metabolic activation, Evaluation Type: Evaluation A (Pre-1980)) was “active; positive”.

In the case of `C1C2OC2C2OC12` (stereo not drawn), the mutagenic call [2] is reported as “active; positive”.

In the case of `Cc1ccc(C)cc1`, the mutagenic call [8] is reported as “no conclusion”.

In the case of `COc1cc(O)c2c(=O)c(O)c(-c3ccc(O)c(O)c3)oc2c1`, the mutagenic call [8] is reported as “no conclusion”.

With `[Cl][Hg][Cl]` the mutagenic call [1] was “active; positive”, the mutagenic call [4] was “active; positive” and the mutagenic call [5] was “active; positive”. The mutagenic call (Species/Cell Type: Neurospora crassa, Assay Type: Aneuploidy, chromosome aberrations, Assay Code: NEN-, Evaluation Type: Evaluation A (Pre-1980)) was “inactive; negative”, the mutagenic call (Species/Cell Type: Nonhuman, Assay Type: Sister-chromatid exchange (SCE) in vitro, Assay Code: SC2+, Evaluation Type: Evaluation B (Post-1980)) was “active; positive” and the mutagenic call (Species/Cell Type: Nonhuman, Assay Type: Sister-chromatid exchange (SCE) in vitro, Assay Code: SC2-, Evaluation Type: Evaluation B (Post-1980)) was “inactive; negative”. For the same compound, the mutagenic call (Species/Cell Type: Syrian hamster embryo (SA7/SHE) cells, Assay Type: Cell transformation, viral enhanced, Assay Code: CT7+, Evaluation Type: Evaluation A (Pre-1980)) was “active; positive”.

`CC(C)N(C(=O)SCC(Cl)=C(Cl)Cl)C(C)C` was tested, and the mutagenic call [3] was “active; positive”.

`Cc1cc(=O)n(-c2ccccc2)n1C` was tested, and the mutagenic call [7] was “inactive; negative”.

With `C#C[C@]1(O)CC[C@H]2[C@@H]3CCc4cc(OC)ccc4[C@H]3CC[C@@]21C` the call [6] was “active; positive”.

In the case of `O=C(O)CS`, the mutagenic call [8] is reported as “no conclusion”.

With `Cc1nc(NO)cc2[nH]c3ccccc3c12` the mutagenic call [4] was “active; positive” and the mutagenic call [5] was “active; positive”.

For `CCCC(=O)C1c2cccc(O)c2C(=O)c2c(O)cccc21`, the mutagenic call (Species/Cell Type: Mammalian polychromatic erythrocytes, Assay Type: Micronucleus test, chromosome aberrations, Assay Code: MNT-, Evaluation Type: Evaluation B (Post-1980)) was “inactive; negative”.
